According to patent US10548912B2, “Dosage regimen for a tiacumicin compound” (Astellas Pharma Europe Ltd., priority 2015, dated 2020):

Experiments:
[1] = test system: CDI; settings: Phase III studies, mITT analysis; cited from earlier work
[2] = oral administration; cited from earlier work
[3] = test system: CDI; assay: Individual patient data for extended fidaxomicin treatment regimen; assay type: in vivo, human
Source text: Individual Patient Data for Extended Fidaxomicin Treatment Regimen

[4] = in vitro BCS study; low solubility, low permeability; cited from earlier work
[5] = test system: Clostridium difficile (C. diff) toxins A and B; assay: Detection of C. difficile toxins A and B in human faecal samples by ELISA (EXTEND samples); assay type: in vivo
Protocol: The detection of Clostridium difficile (C. diff) toxins A and B in human faecal samples was performed by ELISA. The samples to be analysed originated from clinical study 2819-MA-1002 (EXTEND).
The samples were sent to LGC (Analytical lab in Fordham, Cambridgeshire, UK) packed in dry ice and upon receipt stored in a freezer (nominally −80° C.). For each patient a stool sample was collected at Day 0 (screening) and also in case of disease recurrence or an unscheduled visit. For subjects participating in the Microbiome sub-study stool samples were collected at: Day 0 (screening), Day 5, Day 12, Day 27, Day 40, Day 55 and in the case of disease recurrence or an unscheduled visit. A total of 596 faecal samples were collected during the study.
C. difficile toxins A and B in human faecal samples were detected using TECHLAB C. difficile Tox A/B II ELISA kits (Product Number T5015).
The assay readout is the spectrophotometric dual wavelength optical density (OD) read at 450 nm and referenced at 620 nm and expressed in Absorbance Units (AU). All samples were measured in duplicate. The presence (+) or absence (−) of toxin was reported together with the mean OD.
The acceptability of each batch of test samples was dependent on the data from the QC samples fulfilling the acceptance criteria outlined below in Table 5, in that all positive QCs remain above the cut off value of >0.080 OD and negative QCs remain ≤0.080 OD. All batches contained 2 separate sets of QC samples which were measured in duplicate. The precision was calculated between the OD of replicates of each set using the coefficient of variation (CV) which should be <20%.

[6] = test system: Clostridium difficile infection; settings: Louie 2011; 200 mg Fidaxomicin twice daily or vancomycin 125 mg four times daily orally for 10 days; cited from earlier work
[7] = Sub-study visit day 5, n = 20 per arm
[8] = Sub-study visit day 12, n = 20 per arm
[9] = Sub-study visit day 27, n = 20 Fidaxomicin, 17 Vancomycin

CCc1c(Cl)c(O)c(Cl)c(O)c1C(=O)O[C@H]1[C@H](O)[C@H](OC)[C@H](OC/C2=C\C=C\C[C@H](O)/C(C)=C/[C@H](CC)[C@@H](O[C@@H]3OC(C)(C)[C@@H](OC(=O)C(C)C)[C@H](O)[C@@H]3O)/C(C)=C/C(C)=C/C[C@@H]([C@@H](C)O)OC2=O)O[C@@H]1C [fidaxomicin, 3-[[[6-deoxy-4-O-(3,5-dichloro-2-ethyl-4,6-dihydroxybenzoyl)-2-O-methyl-β-D-mannopyranosyl]oxy]methyl]-12(R)-[[6-deoxy-5-C-methyl-4-O-(2-methyl-1-oxopropyl)-β-D-lyxo-hexopyranosyl]oxy]-11 (S)-ethyl-8(S)-hydroxy-18(S)-(1(R)-hydroxyethyl)-9,13,15-trimethyloxacyclooctadeca-3,5,9,13,15-pentaene-2-one]
Recurrence of CDI [1]: 14.1% | Absorption from the intestinal tract [2]: poorly absorbed | Number of Unformed bowel movements per day ([3]; Patient 1 (ID: 3000510001), Day 1): 4 | Number of Unformed bowel movements per day ([3]; Patient 1 (ID: 3000510001), Day 2): 2 | Number of Unformed bowel movements per day ([3]; Patient 1 (ID: 3000510001), Day 3): 1 | Number of Unformed bowel movements per day ([3]; Patient 1 (ID: 3000510001), Day 4): 0 | Number of Unformed bowel movements per day ([3]; Patient 1 (ID: 3000510001), Day 5): 0 | Number of Unformed bowel movements per day ([3]; Patient 1 (ID: 3000510001), Day 6): 2 | Number of Unformed bowel movements per day ([3]; Patient 1 (ID: 3000510001), Day 7): 0 | Number of Unformed bowel movements per day ([3]; Patient 1 (ID: 3000510001), Day 8): 0 | Number of Unformed bowel movements per day ([3]; Patient 1 (ID: 3000510001), Day 9): 0 | Number of Unformed bowel movements per day ([3]; Patient 1 (ID: 3000510001), Day 10): 0 | Number of Unformed bowel movements per day ([3]; Patient 2 (ID: 3000710001), Day 1): 7 | Number of Unformed bowel movements per day ([3]; Patient 2 (ID: 3000710001), Day 2): 7 | Number of Unformed bowel movements per day ([3]; Patient 2 (ID: 3000710001), Day 3): 2 | Number of Unformed bowel movements per day ([3]; Patient 2 (ID: 3000710001), Day 4): 1 | Number of Unformed bowel movements per day ([3]; Patient 2 (ID: 3000710001), Day 5): 1 | Number of Unformed bowel movements per day ([3]; Patient 2 (ID: 3000710001), Day 6): 2 | Number of Unformed bowel movements per day ([3]; Patient 2 (ID: 3000710001), Day 7): 1 | Number of Unformed bowel movements per day ([3]; Patient 2 (ID: 3000710001), Day 8): 1 | Number of Unformed bowel movements per day ([3]; Patient 2 (ID: 3000710001), Day 9): 1 | Number of Unformed bowel movements per day ([3]; Patient 2 (ID: 3000710001), Day 10): 0 | Number of Unformed bowel movements per day ([3]; Patient 3 (ID: 3400310001), Day 1): 8 | Number of Unformed bowel movements per day ([3]; Patient 3 (ID: 3400310001), Day 2): 0 | Number of Unformed bowel movements per day ([3]; Patient 3 (ID: 3400310001), Day 3): 0 | Number of Unformed bowel movements per day ([3]; Patient 3 (ID: 3400310001), Day 4): 0 | Number of Unformed bowel movements per day ([3]; Patient 3 (ID: 3400310001), Day 5): 0 | Number of Unformed bowel movements per day ([3]; Patient 3 (ID: 3400310001), Day 6): 0 | Number of Unformed bowel movements per day ([3]; Patient 3 (ID: 3400310001), Day 7): 0 | Number of Unformed bowel movements per day ([3]; Patient 3 (ID: 3400310001), Day 8): 0 | Number of Unformed bowel movements per day ([3]; Patient 3 (ID: 3400310001), Day 9): 0 | Number of Unformed bowel movements per day ([3]; Patient 3 (ID: 3400310001), Day 10): 0 | Number of Unformed bowel movements per day ([3]; Patient 4 (ID: 3580210001), Day 1): 9 | Number of Unformed bowel movements per day ([3]; Patient 4 (ID: 3580210001), Day 2): 9 | Number of Unformed bowel movements per day ([3]; Patient 4 (ID: 3580210001), Day 3): 5 | Number of Unformed bowel movements per day ([3]; Patient 4 (ID: 3580210001), Day 4): 3 | Number of Unformed bowel movements per day ([3]; Patient 4 (ID: 3580210001), Day 5): 2 | Number of Unformed bowel movements per day ([3]; Patient 4 (ID: 3580210001), Day 6): 3 | Number of Unformed bowel movements per day ([3]; Patient 4 (ID: 3580210001), Day 7): 3 | Number of Unformed bowel movements per day ([3]; Patient 4 (ID: 3580210001), Day 8): 1 | Number of Unformed bowel movements per day ([3]; Patient 4 (ID: 3580210001), Day 9): 1 | Number of Unformed bowel movements per day ([3]; Patient 4 (ID: 3580210001), Day 10): 2 | BCS class [4]: Class IV | CDI toxin in faecal stool samples, Negative (%) [5, 7]: (75%) | CDI toxin in faecal stool samples, Negative (number of subjects) [5, 7]: 15 | CDI toxin in faecal stool samples, Positive (%) [5, 7]: (25%) | CDI toxin in faecal stool samples, Positive (number of subjects) [5, 7]: 5 | CDI toxin in faecal stool samples, Negative (%) [5, 8]: (95.0%) | CDI toxin in faecal stool samples, Negative (number of subjects) [5, 8]: 19 | CDI toxin in faecal stool samples, Positive (%) [5, 8]: (5.0%) | CDI toxin in faecal stool samples, Positive (number of subjects) [5, 8]: 1 | CDI toxin in faecal stool samples, Negative (%) [5, 9]: (95.0%) | CDI toxin in faecal stool samples, Negative (number of subjects) [5, 9]: 19 | CDI toxin in faecal stool samples, Positive (%) [5, 9]: (5.0%) | CDI toxin in faecal stool samples, Positive (number of subjects) [5, 9]: 1 | Recurrence 30 days after end of treatment (%) [6]: 15.4% | Recurrence 30 days after end of treatment (patients/N) [6]: 39/253 | Sustained clinical cure 30 days after end of treatment (%) [6]: 74.6% | Sustained clinical cure 30 days after end of treatment (patients/N) [6]: 214/287
